The conditions of data set [1]: active form, accumulates in cells; cited from earlier work.
A further data set relates to KU1919 and T24 cells. In words: Intracellular carboplatin measurements with NPEPPS and LRRC8A knockdown. Type of data set: cell-based, human. The conditions noted are these: KU1919 and T24 parental and GemCis cells.
In data set [2] the test system is KU1919-GemCis and KU1919 parental cells. In words: Drug dose response with NPEPPS knockdown or overexpression. The data set is classed as cell-based, human.
Data set [3] concerns bladder tumor-derived organoids. As to the kind of experiment: Tumor-derived organoid drug screening (alamarBlue viability, reseeding). The data set is classed as cell-based, human. As to the method:
Three independent organoid models derived from patients that failed between 4 to 6 cycles of neoadjuvant gemcitabine plus cisplatin chemotherapy (FIG. 10A). The organoids mimicked the morphological and genomic characteristics of the tumor from which they were derived (FIG. 10B). These organoids were treated with increasing doses of cisplatin and 20 μM of tosedostat.
Tumor-derived Organoids. Culture of the organoids. Human bladder tissue was obtained from the Erasmus MC Bladder Cancer Center, Rotterdam, the Netherlands. Bladder tumor-derived organoids from biopsies obtained through TURBT or cystectomy. Briefly, bladder tissues were washed with Advanced DMEM/F12 (Gibco) supplemented with 10 mM HEPES (Gibco), 1% GlutaMax (Gibco) and 100 μg/ml primocin (InvivoGen), henceforth Ad+++. Tissue was minced and incubated at 37° C. with the digestion solution (collagenase 2.5 mg/ml in EBSS) and isolated cells were passed through […] strainer (Falcon), washed with Ad+++ and seeded in 50 μl drops of BME (R&D system) containing 10000-15000 cells in 24 well suspension plates (Greiner). Bladder tumor organoids were cultured in a culture medium containing Ad+++ supplemented with 1×B-27 (Gibco), 1.25 mM N-acetylcysteine (Sigma), 10 mM nicotinamide, 20 μM TGFβ receptor inhibitor A83-01, 100 ng/ml recombinant human FGF10 (Peprotech), 25 ng/ml recombinant human FGF7 (Peprotech), 12.5 ng/ml recombinant human FGF2 (Peprotech), 10 μM Y27632 Rho Kinase (ROCK) Inhibitor (Sigma) and conditioned media for recombinant Rspondin (2.5% v/v), and Wnt3A (2.5% v/v). The medium was changed every three days. Organoids were passaged at a 1:3 to 1:6 ratio every 7 days using cell dissociation solution-non enzymatic (Sigma) and plated in fresh BME matrix droplets.
Drug screening. Organoids were collected 7 days after passaging, passed through a […] strainer and 1000 organoids were seeded per well of a 48-well plate in BME matrix droplets. After 24 hours cisplatin (Sigma) resuspended in PBS was added at different concentrations (2, 10, 25, and 50 μM) with or without tosedostat (20 μM) (Tocris) resuspended in DMSO. All wells were adjusted to contain less than 0.7% DMSO. Organoids were cultured for the first 6 days in the presence of drugs followed by drug withdrawal, where organoids were grown in organoid culture media for 10 days. The entire content of the wells in different treatment groups was collected, washed and reseeded after disaggregation in fresh BME, and cultured for 6 days. Cell viability was assayed using alamarBlue (Invitrogen) according to the manufacturer's instructions after 6 days of drug incubation, 10 days of drug withdrawal, and 6 days post reseeding. Viability data was normalized using organoid wells treated with vehicle control.
Background: Alamar Blue is a resazurin reagent that responds to reducing activity.

The test system of data set [4] is KU1919, T24, and TCCSUP GemCis-resistant cells. As to the kind of experiment: Cell culture dose response (IncuCyte growth inhibition) of tosedostat with gemcitabine and/or cisplatin. Type of data set: cell-based, human. The procedure:
One feature of NPEPPS is the availability of agents that inhibit its activity. Tosedostat, an orally available M1 aminopeptidase prodrug has antileukemic activity and is readily available for use. […] Tosedostat is antiproliferative, proapoptotic, and has antiangiogenic effects. The response of the KU1919, T24, and TCCSUP GemCis-resistant cells to increasing doses of tosedostat with gemcitabine, cisplatin, and gemcitabine plus cisplatin was measured. (FIGS. 3F-3H).
Cell Line Drug Treatments. Gemcitabine (Sigma) and cisplatin (Sigma) stocks were resuspended in 0.9% saline solution and tosedostat (Sigma and BOC Sciences) was resuspended in DMSO. All stocks solutions were stored protected from light and kept frozen until use. For cell culture dose response, cells were seeded in 96-well tissue culture plates with 500-2000 cells per well depending on growth rate and duration of experiment. Cells were seeded and allowed to attach overnight followed by replacing the media with fresh, pre-warmed media just prior to treatment. Drug dilutions were performed serially and using complete media (IMDM+10% FBS) and the associated drug treatments. Growth inhibition was measured using confluence estimates over time on the IncuCyte ZOOM (Essen Bioscience) over varying amounts of time depending on each experiment. Details for timing and replicates for each experiment are included in their respective figure legends.

Each structure is given as a SMILES string.

For the compound `CC(C)C[C@@H](C(=O)N[C@H](C(=O)O)c1ccccc1)[C@H](O)C(=O)NO` [CHR-79888], in data set [1], the membrane permeability entry was “poorly membrane-permeable”.

Regarding `N.N.O=C([O-])C1(C(=O)[O-])CCC1.[Pt+2]` [carboplatin], the “NPEPPS-mediated import pattern of carboplatin compared with cisplatin” value in the data set on KU1919 and T24 cells was “the same patterns were found”.

As for `Nc1ccn([C@@H]2O[C@H](CO)[C@@H](O)C2(F)F)c(=O)n1` [gemcitabine], in data set [2] (KU1919-GemCis cells, stable NPEPPS shRNA knockdown), the “effect of NPEPPS knockdown on drug response” value is reported as “not gemcitabine alone”. The “effect of NPEPPS overexpression on drug response” value in data set [2] (KU1919 parental lines overexpressing NPEPPS) is on record as “not gemcitabine”.

As for `CC(C)C[C@@H](C(=O)N[C@H](C(=O)OC1CCCC1)c1ccccc1)[C@H](O)C(=O)NO` [tosedostat], the organoid growth entry in data set [3] (20 μM tosedostat in combination with 2 μM and 10 μM cisplatin) was “significantly decreased organoid growth”; in data set [3] (tosedostat alone, 20 μM) it was “minor effect on organoid growth”. In addition, the entries for the “combined effect on cell growth” value in data set [4] (increasing doses of tosedostat with cisplatin), in data set [4] (increasing doses of tosedostat with gemcitabine) and in data set [4] (increasing doses of tosedostat with gemcitabine plus cisplatin) were “strongest combined effect”, “little to no effect” and “strongest combined effect”, respectively.

The record behind these values is patent US20240050392A1, “COMPOSITIONS AND METHODS FOR IMPROVED TREATMENT OF PLATINUM-BASED CHEMOTHERAPEUTIC RESISTANT TUMORS” (THE REGENTS OF THE UNIVERSITY OF THE COLORADO, A BODY …, priority 2021, published 2024).
